As usually defined, the IC50 is the concentration that inhibits the measured activity by half. The EC50 is the midpoint of the concentration-response curve. The low end stands for higher potency in that assay, the high end for lower potency in that assay. As usually defined, the clearance is the volume of plasma or blood freed of the substance per unit of time. Read a high clearance as a high capacity for elimination. Usually half-life stands for the time in which the quantity being followed falls by half. Read a low half-life as rapid decline. Usually bioavailability stands for the share of a dose that reaches the circulation, judged against a reference dose that is usually intravenous.

The record followed here is patent EP4620956A1, “PARP1 INHIBITORS” (Zhejiang Yangli Pharmaceutical Technology Co., Ltd., priority 2022, dated 2024).

Structures are written as SMILES. Read-outs that look alike come from different tables or passages of the source. Bounds are passed on as bounds.

In series [1] the target is T1, PARP1 (Homo sapiens, UniProt P09874).
T1 construct: purchased BPS 80501
T1 sequence (P09874 whole entry): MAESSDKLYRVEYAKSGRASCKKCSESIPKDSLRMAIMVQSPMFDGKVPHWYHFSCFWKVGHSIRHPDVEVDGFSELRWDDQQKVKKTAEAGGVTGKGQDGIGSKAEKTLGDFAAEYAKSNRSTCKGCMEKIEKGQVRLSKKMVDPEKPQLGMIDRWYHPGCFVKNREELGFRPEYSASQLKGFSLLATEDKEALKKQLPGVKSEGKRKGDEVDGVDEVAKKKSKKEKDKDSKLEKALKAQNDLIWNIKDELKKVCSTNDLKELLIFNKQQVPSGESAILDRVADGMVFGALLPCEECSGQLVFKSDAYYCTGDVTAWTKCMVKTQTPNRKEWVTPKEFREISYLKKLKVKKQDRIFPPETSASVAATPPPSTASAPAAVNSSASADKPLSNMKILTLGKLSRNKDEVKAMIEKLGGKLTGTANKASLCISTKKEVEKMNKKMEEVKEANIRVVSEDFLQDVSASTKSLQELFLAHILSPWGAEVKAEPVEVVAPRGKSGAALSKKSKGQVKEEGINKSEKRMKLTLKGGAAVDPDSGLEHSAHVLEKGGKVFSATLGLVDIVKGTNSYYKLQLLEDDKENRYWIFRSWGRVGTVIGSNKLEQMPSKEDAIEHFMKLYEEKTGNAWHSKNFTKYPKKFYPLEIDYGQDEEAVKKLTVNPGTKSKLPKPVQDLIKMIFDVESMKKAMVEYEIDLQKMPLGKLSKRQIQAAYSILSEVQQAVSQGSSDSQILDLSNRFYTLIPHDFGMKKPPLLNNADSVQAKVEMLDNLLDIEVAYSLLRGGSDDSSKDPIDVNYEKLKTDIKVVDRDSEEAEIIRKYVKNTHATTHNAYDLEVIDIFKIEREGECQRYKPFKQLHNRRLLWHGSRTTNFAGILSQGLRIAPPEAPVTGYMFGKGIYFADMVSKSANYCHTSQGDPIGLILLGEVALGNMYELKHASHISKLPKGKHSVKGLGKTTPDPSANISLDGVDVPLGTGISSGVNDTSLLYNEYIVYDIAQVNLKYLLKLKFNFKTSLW
The series is described as follows: Inhibition of PARP1 enzyme activity (chemiluminescence). It is filed as biochemical. The settings on record: for PARP1/2 selectivity fold: PARP2 vs PARP1.

Series [2] deals with T2, PARP2 (Homo sapiens, UniProt Q9UGN5).
T2 construct: purchased BPS 80502
T2 sequence (Q9UGN5 whole entry): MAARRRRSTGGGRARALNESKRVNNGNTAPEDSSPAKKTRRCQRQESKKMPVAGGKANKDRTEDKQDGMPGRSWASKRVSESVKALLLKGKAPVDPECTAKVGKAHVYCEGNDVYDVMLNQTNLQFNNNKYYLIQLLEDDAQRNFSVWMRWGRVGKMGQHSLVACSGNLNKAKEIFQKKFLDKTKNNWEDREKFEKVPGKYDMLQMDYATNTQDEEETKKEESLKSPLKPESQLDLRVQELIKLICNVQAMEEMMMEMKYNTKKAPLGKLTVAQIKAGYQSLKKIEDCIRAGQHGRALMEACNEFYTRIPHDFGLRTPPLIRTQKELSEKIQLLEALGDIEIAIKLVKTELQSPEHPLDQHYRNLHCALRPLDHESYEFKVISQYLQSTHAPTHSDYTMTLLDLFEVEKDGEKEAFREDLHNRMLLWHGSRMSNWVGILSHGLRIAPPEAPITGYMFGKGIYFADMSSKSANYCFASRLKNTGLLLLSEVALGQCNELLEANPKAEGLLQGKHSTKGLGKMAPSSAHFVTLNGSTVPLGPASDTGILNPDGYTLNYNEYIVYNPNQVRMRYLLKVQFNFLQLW
The series is described as follows: Inhibition of PARP2 enzyme activity (chemiluminescence). It is filed as biochemical.

The target in series [3] is T1, PARP1. The series is described as follows: DNA trapping capability of PARP1 (HTRF). It is filed as biochemical.
Series [4] concerns the target T2, PARP2. The series is described as follows: DNA trapping capability of PARP2 (HTRF). It is filed as biochemical.
The test system of another series is A549 WT. The series is described as follows: Cellular PARylation inhibition, high-content imaging, A549 WT. It is filed as cell-based. The settings on record: Homo sapiens, PARylation at the cellular level. The method, then: The inhibitory effect of the compounds on PARP1/PARP2 enzyme activity at the cellular level was detected using high-content imaging. A549 WT, PARP1-KO and PARP2-KO cell lines were established in-house, and the cells were revived. After the cells were stable, a sufficient number of cells were collected and 100 µL of the cell suspension was seeded into a 96-well plate. The next day, the example compounds with serially diluted concentrations were added. […] The plate was incubated for 1.5 hours (A549 WT and PARP2-KO cell lines) or 2 hours (PARP1-KO cell line). After removing the supernatant, 0.4 mM H2O2 was added and incubation was carried out for 10 minutes (A549 WT and PARP2-KO cell lines) or 1.5 mM H2O2 was added and incubation was carried out for 15 minutes (PARP1-KO cell line) to induce extensive cellular DNA damage. After removing the supernatant, the cells were fixed with 4% paraformaldehyde for 20 minutes, followed by treatment with 0.5% Triton X-100 for 20 minutes to increase the permeability of the cell membrane. After that, the cells were incubated with 3% BSA for 1 hour to prevent non-specific binding. […] The cell nuclei were stained for 30 minutes by adding 50 µL DAPI (invitrogen, R37606). After washing twice with PBS, images were acquired on OPERETTA CLS™ (PE) by scanning the cells under a 20x water objective lens in non-confocal mode, with 5 fields of view captured per well. […] The inhibition rate was calculated using the fluorescence values from the Max and Min wells, and the dose-response curve was fitted using the analysis software GraphPad Prism 5 to obtain the IC50 value of each compound for the enzyme activity.

The next series relates to A549 PARP2-KO cell line. In words: Cellular PARylation inhibition, high-content imaging, PARP2-KO. It is filed as cell-based. The conditions noted are these: for IC50: Homo sapiens.
The test system of another series is A549 PARP1-KO cell lines. The series is described as follows: Cellular PARylation inhibition, high-content imaging, PARP1-KO. It is filed as cell-based. The settings on record: for IC50: Homo sapiens, A549, PARylation at the cellular level; for inhibition on the enzyme activity at the highest concentration: A549 PARP1-KO cell lines, 40 µM.
Another series deals with MDA-MB-436. In words: Anti-proliferative activity (CellTiter-Glo, 7 days), MDA-MB-436. It is filed as cell-based, human. The settings on record: for IC50: Homo sapiens, MDA-MB-436, 168 h, BRCA1-mutated, 7 days, read-out: MDA-MB-436 IC50; for BRCA1 mutation/WT selectivity fold: MDA-MB-231 vs MDA-MB-436. Background: ATP-based viability assays read luminescence as a measure of living cells.

The next series relates to MDA-MB-231. In words: Anti-proliferative activity (CellTiter-Glo, 7 days), MDA-MB-231. It is filed as cell-based, human. The settings on record: for inhibition on cell proliferation at the highest concentration: 10 µM; for IC50: Homo sapiens.
A further series deals with DLD-1 BRCA2^-/-. In words: Anti-proliferative activity (CellTiter-Glo, 7 days), DLD-1 BRCA2-/-. It is filed as cell-based, human. The conditions noted are these: for BRCA2 mutation/WT selectivity fold: DLD-1 WT vs DLD-1 BRCA2^-/-; for IC50: Homo sapiens, DLD-1, 168 h, BRCA2-mutated, 7 days.
For the next series, the system named is DLD-1 WT. In words: Anti-proliferative activity (CellTiter-Glo, 7 days), DLD-1 WT. It is filed as cell-based, human. The conditions noted are these: for inhibition on cell proliferation at the highest concentration: BRCA2-normal DLD-1 cell line, 10 µM; for IC50: Homo sapiens, DLD-1, 168 h, BRCA2-normal, 7 days. How it is done: The anti-proliferation experiment of the compounds on tumour cells adopted the most widely used ATP concentration-based detection method at present. MDA-MB-231 and MDA-MB-436 cell lines were obtained from ATCC, DLD-1 human colourectal adenocarcinoma epithelial cells and DLD-1 BRCA2^-/- cells were obtained from Horizon, and the cells were revived. After the cells were stable, the cells were collected. When the viable cell count exceeded 90%, 450-500 cells were seeded into a 384-well plate. The next day, the example compounds with serially diluted concentrations were added. Only buffer was added to the Max well, and 50 µM AZD2281 was added to the Min well. The plate was incubated for 7 days, and on the eighth day, CellTiter-Glo® reagent (Promega, G7573) was added. The plate was incubated at room temperature for 30 minutes, and the values were read on Envision (PE). The inhibition rate was calculated using the fluorescence values from the Max and Min wells, and the dose-response curve was fitted using the analysis software GraphPad Prism 5 to obtain the IC50 value of each compound for the enzyme activity.

Series [5] can be described thus: Pharmacokinetic study of single administration in mice. It is filed as in vivo. The conditions noted are these: CD-1 mice. How it is done:
Male CD-1 mice were used as test animals. The plasma drug concentrations of the compounds were determined and the pharmacokinetic parameters were evaluated after a single administration. Healthy adult male CD-1 mice were selected. The candidate compound was added to 10% DMSO, vortexed and sonicated. After complete dissolution, 30% PEG400 was added, followed by vortexing and sonication, and 60% double-distilled water was added to prepare a clear solution for later use. After the mice were intravenously injected at a dose of 2 mg/kg and orally administered at a dose of 10 mg/kg, whole blood was collected at 5 minutes, 15 minutes, 30 minutes, 1 hour, 2 hours, 4 hours, 8 hours, and 24 hours after administration to prepare plasma. After sample treatment, the drug concentration was analysed by LC-MS/MS method, and the pharmacokinetic parameters were calculated.

Where [6] appears, read: PARylation at the cellular level.
[7] abbreviates: BRCA1-normal MDA-MB-231 cell line.
Setting [8] is: MDA-MB-231, 168 h, BRCA1-normal, 7 days, read-out: MDA-MB-231 IC50.
Setting [9] is: male, mouse, plasma, IV, 2 mg/kg.
[10] abbreviates: male, mouse, plasma, PO, 10 mg/kg.
Setting [11] is: A549, PARylation at the cellular level, read-out: PARP2-KO IC50.

For the compound `CCc1c(N)c2ncc(CN3CCN(c4ccc(C(=O)NC)nc4)CC3)cc2[nH]c1=O` [Example 1, 5-(4-((8-Amino-7-ethyl-6-oxo-5,6-dihydro-1,5-naphthyridin-3-yl)methyl)piperazin-1-yl)-N-methylpicolinamide], the IC50 on PARP1 [1] was 0.00049 µM; on PARP2 [2], 0.0528 µM; with A549 WT, 0.0144 µM; in the series with A549 PARP2-KO cell line (A549, read-out: PARP2-KO IC50), 0.0722 µM; with A549 PARP1-KO cell lines, 47.7 µM; in the series with MDA-MB-436, 0.0164 µM. Also, the values for the IC50 in the series on MDA-MB-231 (setting [8]), in the series on DLD-1 BRCA2^-/- and with DLD-1 WT were more than 10 µM, 0.0186 µM and more than 10 µM, respectively. The same compound displayed a PARP1/2 selectivity fold on PARP1 [1] of 108 fold. Also, the EC50 was 0.00178 µM on PARP1 [3] and 0.168 µM on PARP2 [4]. In addition, the “PARP1 KO/PARP2 KO selectivity fold” value with A549 PARP2-KO cell line (setting [6]) turned out to be 660 fold. In addition, in the series on MDA-MB-436, the “BRCA1 mutation/WT selectivity fold” value is given as more than 608 fold. The “inhibition on cell proliferation at the highest concentration” value (from here on “inhibition on cell proliferation”) with MDA-MB-231 (setting [7]) and with DLD-1 WT was “no detectable inhibition” in each case. Moreover, the “BRCA2 mutation/WT selectivity fold” value with DLD-1 BRCA2^-/- is more than 538 fold. Also, the Exposure inf came to 38.222 µg·h/mL in [5] (IV, 2 mg/kg) and 191.246 µg·h/mL in series [5] (PO, 10 mg/kg). Also, the Exposure last in series [5] (IV, 2 mg/kg) turned out to be 38.128 µg·h/mL; in [5] (PO, 10 mg/kg), 189.56 µg·h/mL. Further, the Peak concentration in series [5] (PO, 10 mg/kg) is on record as 15700 ng/mL. The compound further returned a Time to peak in [5] (PO, 10 mg/kg) of 2 h. For the same compound, in series [5] (setting [9]), the clearance was found to be 0.872 mL/min/kg. Also, the half-life is 2.81 h in series [5] (setting [9]) and 3.51 h in [5] (setting [10]). The Vd in series [5] (male, mouse, plasma, IV, 2 mg/kg, read-out: Apparent volume of distribution) was found to be 0.218 L/kg. Besides, in series [5] (setting [10]), the bioavailability amounted to 100%.

For the compound `CCc1c(N)c2ncc(CN3CCN(c4ccc(C(=O)NOC)nc4F)CC3)cc2[nH]c1=O` [Example 2, 5-(4-((8-Amino-7-ethyl-6-oxo-5,6-dihydro-1,5-naphthyridin-3-yl)methyl)piperazin-1-yl)-6-fluoro-N-methoxypicolinamide], the IC50 at PARP1 [1] is 0.00039 µM; against PARP2 [2] it was 0.017 µM; in the series on A549 WT it was 0.0105 µM; with A549 PARP2-KO cell line (setting [11]) it was 0.0617 µM; in the series on A549 PARP1-KO cell lines, more than 40 µM; with MDA-MB-436, 0.00574 µM. For the same compound, the IC50 in the series on MDA-MB-231 (setting [8]) was more than 10 µM; with DLD-1 BRCA2^-/-, 0.00862 µM; with DLD-1 WT, more than 10 µM. The same compound showed a PARP1/2 selectivity fold on PARP1 [1] of 44 fold. The values for the EC50 on PARP1 [3] and at PARP2 [4] were 0.00373 µM and 0.338 µM, respectively. For the same compound, the “PARP1 KO/PARP2 KO selectivity fold” value in the series on A549 PARP2-KO cell line (setting [6]) is listed as more than 648 fold. In addition, the “inhibition on the enzyme activity at the highest concentration” value in the series with A549 PARP1-KO cell lines is reported as “no detectable inhibition”. For the same compound, the “BRCA1 mutation/WT selectivity fold” value in the series on MDA-MB-436 is given as >1,742 fold. The “inhibition on cell proliferation” value in the series with MDA-MB-231 (setting [7]) and in the series on DLD-1 WT was “no detectable inhibition” throughout. Also, the “BRCA2 mutation/WT selectivity fold” value in the series with DLD-1 BRCA2^-/- is >1,162 fold.

As for `CCc1c(N)c2ncc(CN3CCN(c4ccc(C(=O)NC)nc4F)CC3)cc2[nH]c1=O` [Example 3, 5-(4-((8-Amino-7-ethyl-6-oxo-5,6-dihydro-1,5-naphthyridin-3-yl)methyl)piperazin-1-yl)-6-fluoro-N-methylpicolinamide], the IC50 is 0.00041 µM at PARP1 [1]; 0.0087 µM against PARP2 [2]; 0.0059 µM in the series on A549 WT; 0.0162 µM with A549 PARP2-KO cell line (setting [11]); more than 40 µM in the series on A549 PARP1-KO cell lines; 0.00127 µM in the series with MDA-MB-436. For the same compound, the IC50 with MDA-MB-231 (setting [8]) is 7.4 µM; in the series on MDA-MB-231 (BRCA1-normal MDA-MB-231 cell line, read-out: IC50), 7.4 µM; with DLD-1 BRCA2^-/-, 0.00507 µM; with DLD-1 WT, more than 10 µM. Also, the PARP1/2 selectivity fold was 21 fold at PARP1 [1] and 64 fold at PARP1 [3]. The EC50 on PARP1 [3] came to 0.00387 µM; at PARP2 [4], 0.249 µM. In addition, the “PARP1 KO/PARP2 KO selectivity fold” value with A549 PARP2-KO cell line (setting [6]) is more than 2468 fold. Moreover, the “inhibition on the enzyme activity at the highest concentration” value in the series with A549 PARP1-KO cell lines was “no detectable inhibition”. Also, in the series on MDA-MB-436, the “BRCA1 mutation/WT selectivity fold” value was 5,828 fold. In the series with DLD-1 BRCA2^-/-, the “BRCA2 mutation/WT selectivity fold” value was >1,972 fold. The “inhibition on cell proliferation” value in the series on DLD-1 WT is “no detectable inhibition”.
